Data on 22 molecules can be found in patent publication US20090286791A1, “Amide Compounds” (TAKEDA PHARMACEUTICAL COMPANY LIMITED, priority 2001, published 2009).

The target in this assay is T1, human DGAT1 (Homo sapiens, UniProt O75907).
T1 construct: made in house; host or cells: Sf9 insect cells (baculovirus BAC-DGAT1, pFASTBAC1); microsome fraction
T1 sequence (O75907 1-488): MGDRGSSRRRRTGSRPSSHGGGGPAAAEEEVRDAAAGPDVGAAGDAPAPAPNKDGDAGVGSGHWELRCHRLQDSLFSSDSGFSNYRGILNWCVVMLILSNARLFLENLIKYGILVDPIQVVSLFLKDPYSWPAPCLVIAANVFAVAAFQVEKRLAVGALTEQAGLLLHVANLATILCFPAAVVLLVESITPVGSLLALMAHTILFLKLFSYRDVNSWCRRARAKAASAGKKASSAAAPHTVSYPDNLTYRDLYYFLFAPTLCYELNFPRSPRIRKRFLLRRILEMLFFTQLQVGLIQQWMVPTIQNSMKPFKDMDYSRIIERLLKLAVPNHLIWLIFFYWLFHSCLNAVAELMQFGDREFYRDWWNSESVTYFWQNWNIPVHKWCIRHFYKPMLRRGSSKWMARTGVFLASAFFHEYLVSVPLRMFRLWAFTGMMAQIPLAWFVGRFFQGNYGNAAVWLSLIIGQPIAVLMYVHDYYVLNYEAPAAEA
In words: DGAT inhibitory activity: [14C]-triglyceride synthesis with DGAT1 high expression Sf9 microsome. Type of assay: biochemical. As to conditions: 25 μM dioleoylglycerol, 25 μM [14C]-Oleoyl-CoA, 32° C., 20 min, read-out: hDGAT1 IC50. The protocol:
The primer nucleotide sequence is shown below.
The PCR reaction was conducted using a KOD-plus kit (TOYOBO). The obtained PCR product was electrophoresed on agarose gel (1%), the DNA fragment amplified by PCR was recovered from the gel, and then digested with restriction enzymes EcoRI and SpeI. […] Furthermore, using BAC-TO-BAC Baculovirus Expression System (Invitrogen), recombinant baculovirus BAC-DGAT1 was prepared.
SF9 cells were sown at 1×10^6 cells/ml on Sf-900II SFM medium (1 L, Invitrogen) containing 10% fetal calf serum (Trace), 50 mg/L gentamicin (Invitrogen) and 0.1% Pluronic F-68 (Invitrogen), and shaking culture was performed using a 2 L volume Erlenmeyer flask at 27° C., 100 rpm. After culturing for 24 hrs, recombinant baculovirus BAC-DGAT1 (6.7 mL) was added, and the mixture was further cultured for 3 days. The culture medium was centrifuged at 2,000 rpm for 5 min to give virus-infected cells. The infected cells were washed with a phosphate buffered saline (Invitrogen), centrifuged under the same conditions, and the cells were preserved at −80° C. The cryopreserved cells were thawed in ice, suspended in buffer A (50 mM Tris buffer (30 mL, pH 7.4) containing 20% glycerol, 0.15 M NaCl) supplemented with Complete Protease Inhibitor (Boehringer), and ruptured 3 times with a Polytron homogenizer (Kinematica) at 20,000 rpm for 30 sec. The Sf9 microsome fractions were obtained by a conventional method and cryopreserved at −80° C. as a DGAT1 high expression Sf9 microsome.
As a DGAT1 reaction buffer, a solution having a composition of 100 mM Tris-HCl (pH 7.5), 250 mM sucrose, 150 mM MgCl2, 0.01% bovine serum albumin (BSA) was used. […] A mixture of 300 μL of chloroform:methanol (=1:2) was added to the reaction mixture to quench the reaction. The reaction mixture was sufficiently mixed and distilled water (200 μL) was added to partition the mixture between a chloroform layer (lower layer) and an aqueous layer (upper layer). […] The developed TLC plate was dried, contacted with a BAS imaging plate (manufactured by FUJIFIIM) and measured with BAS2500 (manufactured by FUJIFILM) 16 hr later to numerically show the amount of [^14C]-triglyceride (TG amount) produced during the reaction. The inhibitory rate was calculated by the following formula:
Inhibitory rate (%)=(1−(TG amount with addition of test compound−blank TG amount)/(control TG amount−blank TG amount))×100
The count of the triglyceride produced in the solution reacted without addition of the compound was used as a “control TG amount”, and the count of the triglyceride produced in the solution reacted without addition of the test compound and DGAT1 high expression Sf9 microsome was used as a “blank TG amount”.
As a reminder, the IC50 is the concentration needed to halve the response being measured. As to `CCOc1ccc(C(=O)NCCNC(=O)c2cn(-c3cccc(OCC)n3)nc2C(F)(F)F)cc1` [B6, N-(2-(4-ethoxybenzamido)ethyl)-1-(6-ethoxypyridin-2-yl)-3-(trifluorometh-yl)-1H-pyrazole-4-carboxamide], the IC50 fell in the range of 100 to 1000 nM.
The figure for `CCOc1ccc(C(=O)NC[C@@H](NC(=O)c2cn(-c3ccccc3)nc2C(F)(F)F)C(=O)OC)cc1` [C15] is 100 to 1000 nM; for `CN(C)CCNc1ccc(C(=O)NCCNC(=O)c2cn(-c3ccccc3)nc2C(F)(F)F)cn1` [Example A11, 6-(2-(dimethyl-amino)ethylamino)-N-(2-(1-phenyl-3-(trifluoromethyl)-1H-pyrazole-4-carboxamido)ethyl) nicotinamide] it is 1000 to 10000 nM.
The figure for `O=C(NCCNC(=O)c1cn(-c2ccccc2)nc1C(F)(F)F)c1ccc(-n2cccn2)nc1` [Example A12, N-(2-(1-phenyl-3-(trifluoromethyl)-1H-pyrazole-4-carboxamido)ethyl)-6-(1H-pyrazol-1-yl) nicotinamide] is < 100 nM.
For `CN(C)c1ccc(C(=O)NCCNC(=O)c2cn(-c3ccccc3)nc2C(F)(F)F)cn1` [Example A15, 6-(dimethylamino)-N-(2-(1-phenyl-3-(trifluoromethyl)-1H-pyrazole-4-carboxamido)ethyl)nicotinamide], the IC50 fell in the range of 100 to 1000 nM.
As to `CCCCc1ccc(C(=O)NCCNC(=O)c2cn(-c3ccccc3)nc2C(F)(F)F)nc1` [Example A24, 5-butyl-N-(2-(1-phenyl-3-(trifluoromethyl)-1H-pyrazole-4-carboxamido)ethyl)picolinamide], the IC50 lay within 100 to 1000 nM.
For `O=C(NCCNC(=O)c1cn(-c2ccccc2)nc1C(F)(F)F)c1ccc(OCCC(F)(F)F)nc1` [Example A42, N-(2-(1-phenyl-3-(trifluoromethyl)-1H-pyrazole-4-carboxamido)ethyl)-6-(3,3,3-trifluoropropoxy)nicotinamide] the value was < 100 nM.
`O=C(NCCNC(=O)c1cn(-c2ccccc2)c2ccccc12)c1ccc(OCC(F)(F)F)nc1` [Example A53, 1-phenyl-N-(2-(6-(2,2,2-trifluoroethoxy)nicotinamido)ethyl)-1H-indole-3-carboxamide]: the IC50 was < 100 nM.
With `COc1nn(-c2ccccc2)cc1C(=O)NCCNC(=O)c1ccc(OCC(F)(F)F)nc1` [Example A55, N-(2-(3-methoxy-1-phenyl-1H-pyrazole-4-carboxamido)ethyl)-6-(2,2,2-trifluoroethoxy) nicotinamide], the IC50 was 100 to 1000 nM.
Consider `CN(C)c1nn(-c2ccccc2)cc1C(=O)NCCNC(=O)c1ccc(OCC(F)(F)F)nc1` [Example A58, N-(2-(3-(dimethylamino)-1-phenyl-1H-pyrazole-4-carboxamido)ethyl)-6-(2,2,2-trifluoroethoxy) nicotinamide], for which the IC50 fell in the range of 1000 to 10000 nM.
For `CCCc1cc(CCC)c(C(=O)NCCNC(=O)c2cn(-c3ccccc3)nc2C(F)(F)F)cn1` [Example A76, N-(2-(1-phenyl-3-(trifluoro-methyl)-1H-pyrazole-4-carboxamido)ethyl)-4,6-di-propylnicotinamide], the IC50 was 100 to 1000 nM.
The figure for `O=C(NCCNC(=O)c1cn(C(=O)c2ccccc2)c2ccccc12)c1ccc(OCC(F)(F)F)nc1` [Example A82, 1-benzoyl-N-(2-(6-(2,2,2-trifluoroethoxy)nicotinamido)ethyl)-1H-indole-3-carboxamide] is < 100 nM.
For `O=C(NCCNC(=O)c1cn(-c2ccccc2)nc1C(F)(F)F)c1ccc(S(=O)(=O)c2ccccc2)nc1` [Example A86, N-(2-(1-Phenyl-3-(trifluoromethyl)-1H-pyrazole-4-carboxamido)ethyl)-6-(phenylsulfonyl)nicotinamide] the value was 100 to 1000 nM.
With `N#Cc1cc(C(=O)NCCNC(=O)c2cn(-c3ccccc3)nc2C(F)(F)F)cnc1OCC(F)(F)F` [Example A87, 5-Cyano-N-(2-(1-phenyl-3-(trifluoromethyl)-1H-pyrazole-4-carboxamido)ethyl)-6-(2,2,2-trifluoroethoxy)nicotinamide], the IC50 lay within 100 to 1000 nM.
For `O=C(NCCNC(=O)c1cn(-c2ccccc2)nc1C(F)(F)F)c1ccc(-c2ncon2)nc1` [Example A96, 6-(1,2,4-Oxadiazol-3-yl)-N-(2-(1-phenyl-3-(trifluoromethyl)-1H-pyrazole-4-carboxamido)ethyl)nicotinamide] the value was 100 to 1000 nM.
On to `O=C(NCCNC(=O)c1cn(-c2ccccc2)nc1C(F)(F)F)c1ccc(-c2noc(C(F)(F)F)n2)nc1` [Example A98, N-(2-(1-Phenyl-3-(trifluoromethyl)-1H-pyrazole-4-carboxamido)ethyl)-6-(5-(trifluoromethyl)-1,2,4-oxadiazol-3-yl)nicotinamide], for which the IC50 is < 100 nM.
The figure for `CC(=O)Nc1ccc(C(=O)NCCNC(=O)c2cn(-c3ccccc3)nc2C(F)(F)F)cn1` [Example A99, 6-Acetamido-N-(2-(1-phenyl-3-(trifluoromethyl)-1H-pyrazole-4-carboxamido)ethyl)nicotinamide] is 1000 to 10000 nM; for `CC(C)c1nc(-c2ccc(C(=O)NCCNC(=O)c3cn(-c4ccccc4)nc3C(F)(F)F)cn2)no1` [Example A103, 6-(5-isopropyl-1,2,4-oxadiazol-3-yl)-N-(2-(1-phenyl-3-(trifluoromethyl)-1H-pyrazole-4-carboxamido)ethyl)nicotinamide] it is < 100 nM; for `CCOc1ccc(C(=O)NCCNC(=O)c2cn(-c3ccc4[nH]ccc4c3)nc2C(F)(F)F)cc1` [Example B1, N-(2-(4-Ethoxybenzamido)ethyl)-1-(1H-indol-5-yl)-3-(trifluoromethyl)-1H-pyrazole-4-carboxamide] it is < 100 nM.
`CCOc1ccc(C(=O)N2CCCC2CNC(=O)c2cn(-c3ccccc3)nc2C(F)(F)F)cc1` (stereo not shown) [Example C11, N-((1-(4-ethoxybenzoyl)pyrrolidin-2-yl)methyl)-1-phenyl-3-(trifluoromethyl)-1H-pyrazole-4-carboxamide]: the IC50 is 1000 to 10000 nM.
On to `CCOc1ccc(C(=O)NCCNC(=O)c2cc(-c3ccccc3)cc(-c3ccccc3)n2)cc1` [Example D1, N-(2-(4-Ethoxybenzamido)ethyl)-4,6-diphenylpicolinamide], for which the IC50 was in the range of 1000 to 10000 nM.
The figure for `CCOc1ccc(C(=O)NCCNC(=O)c2nn(-c3ccccc3)nc2C)cc1` [Example D6, N-(2-(4-ethoxybenzamido)ethyl)-5-methyl-2-phenyl-1H-1,2,3-triazole-4-carboxamide] is 1000 to 10000 nM.
